According to patent US12063932B2, “Method of promoting plant growth effects” (Bayer CropScience Aktiengesellschaft, priority 2016, dated 2024):

How the values were obtained:
Assay type in all cases: in vivo
[1] = system: Soybean seeds of the variety Merlin; experiment: Soybean seed treatment: root volume after 19 days (Example B); conditions: untreated control 0.82
Method: (§1) Soybean seeds of the variety Merlin were treated with 1.2, 0.6 and 0.3 g of compound (A) per 100 kg seeds. Compound (A) was provided as an aqueous solution with a concentration of 1000 ppm compound (A). The treated seeds were seeded into soil/quartz in five replicates at the same day. Germination was observed four days later. Root volume was determined after 19 days.

[2] = system: Roses of the variety Kordana Mixkar; experiment: Rose foliar application: number of flowers by visual inspection (Example D); conditions: for No Flowers, Average (A to E): average of five replicates, untreated controls 9.4 and 10.2; for No Flowers, A: replicate A; for No Flowers, A / No Flowers, B / No Flowers, C / No Flowers, D / No Flowers, E: assessed 2016-06-14; for No Flowers, B: replicate B; for No Flowers, C: replicate C; for No Flowers, D: replicate D; for No Flowers, E: replicate E
Method: FIGS. 2A-2H. Rose plants of the variety Kordana Mixkar were treated in five replicates. Untreated control is shown in FIG. 2A (side view) and FIG. 2B (top view). Treatment at 1 ppm is shown in FIG. 2C (side view) and FIG. 2D (top view). Treatment at 80 ppm is shown in FIG. 2E (side view) and FIG. 2F (top view). Treatment at 420 ppm is showing in FIG. 2G (side view) and FIG. 2H (top view). Rose plants were evaluated for quantity and fullness of flowers.
Roses of the variety Kordana Mixkar were cultivated in 2 litre pots in soil in the greenhouse at 23 degree Celsius and 80% humidity. Compound (A) and Clopyralid as a comparison were applied as a foliar application on 2016-05-25 at application rates according to the following table 3 Ammonium sulfate and methylated soybean oil were used as penetration enhancing agents.
Rose plants were treated in five replicates. The number of flowers was assessed by visual inspection on 2016-06-14.

[3] = system: Soybean seeds of the variety Merlin; experiment: Soybean seed treatment: plant height, fresh and dry weight of stem and roots after 19 days (Example A); conditions: for dry weight roots, % of untreated control / dry weight stem, % of untreated control / fresh weight roots, % of untreated control / fresh weight stem, % of untreated control: untreated control given as 100
Method: as §1, with “Plant height, fresh and dry weight of stem and roots were” for “Root volume was”

[4] = system: Soybean seeds of the variety Merlin; experiment: Soybean seed treatment: comparative photographs of seedlings after 19 days (Example C)
Method: FIGS. 1A-1H. Soybean seeds of the variety Merlin were untreated FIG. 1A (top view) and FIG. 1B (side view), or treated 1.2 g/100 kg/seeds of Compound (A) in FIG. 1C (top view) and FIG. 1D (side view); or treated with 0.6 g/100 kg seeds of Compound (A) in FIG. 1E (Lop view) and FIG. 1F (side view); or treated with 0.3 g/100 kg seeds of compound (A) in FIG. 1G (top view) and FIG. 1H (side view). Seedlings were evaluated after 19 days. Soybean seeds of the variety Merlin were treated with 1.2, 0.6 and 0.3 g of compound (A) per 100 kg seeds. Compound (A) was provided as an aqueous solution with a concentration of 1000 ppm compound (A). The treated seeds were seeded into soil/quartz in five replicates at the same day. Germination was observed four days later. Comparative photographs were taken after 19 days.

[5] = seed treatment 0.3 g/100 kg seeds
[6] = seed treatment 0.6 g/100 kg seeds
[7] = seed treatment 1.2 g/100 kg seeds
[8] = 0.3 g/100 kg seeds, photographs after 19 days (FIGS. 1G, 1H)
[9] = 0.6 g/100 kg seeds, photographs after 19 days (FIGS. 1E, 1F)

O=C(O)c1ncc(C(F)(F)F)cc1Cl [Compound (A), 3-chloro-5-(trifluoromethyl)pyridine-2-carboxylic acid]
Root volume [cm^3] [1, 5]: 0.83 cm^3 | Root volume [cm^3] [1, 6]: 0.96 cm^3 | Root volume [cm^3] [1, 7]: 0.50 cm^3 | No Flowers, Average (A to E) ([2]; 1 ppm foliar): 9.6 | No Flowers, A ([2]; 1 ppm foliar): 8 | No Flowers, B ([2]; 1 ppm foliar): 7 | No Flowers, C ([2]; 1 ppm foliar): 11 | No Flowers, D ([2]; 1 ppm foliar): 10 | No Flowers, E ([2]; 1 ppm foliar): 12 | No Flowers, Average (A to E) ([2]; 10 ppm foliar): 10.2 | No Flowers, A ([2]; 10 ppm foliar): 11 | No Flowers, B ([2]; 10 ppm foliar): 10 | No Flowers, C ([2]; 10 ppm foliar): 10 | No Flowers, D ([2]; 10 ppm foliar): 10 | No Flowers, E ([2]; 10 ppm foliar): 10 | No Flowers, Average (A to E) ([2]; 20 ppm foliar): 10.6 | No Flowers, A ([2]; 20 ppm foliar): 11 | No Flowers, B ([2]; 20 ppm foliar): 10 | No Flowers, C ([2]; 20 ppm foliar): 12 | No Flowers, D ([2]; 20 ppm foliar): 10 | No Flowers, E ([2]; 20 ppm foliar): 10 | No Flowers, Average (A to E) ([2]; 40 ppm foliar): 11.2 | No Flowers, A ([2]; 40 ppm foliar): 11 | No Flowers, B ([2]; 40 ppm foliar): 8 | No Flowers, C ([2]; 40 ppm foliar): 13 | No Flowers, D ([2]; 40 ppm foliar): 12 | No Flowers, E ([2]; 40 ppm foliar): 12 | No Flowers, Average (A to E) ([2]; 80 ppm foliar): 11.4 | No Flowers, A ([2]; 80 ppm foliar): 12 | No Flowers, B ([2]; 80 ppm foliar): 13 | No Flowers, C ([2]; 80 ppm foliar): 11 | No Flowers, D ([2]; 80 ppm foliar): 11 | No Flowers, E ([2]; 80 ppm foliar): 10 | No Flowers, Average (A to E) ([2]; 170 ppm foliar): 8.8 | No Flowers, A ([2]; 170 ppm foliar): 8 | No Flowers, B ([2]; 170 ppm foliar): 10 | No Flowers, C ([2]; 170 ppm foliar): 10 | No Flowers, D ([2]; 170 ppm foliar): 5 | No Flowers, E ([2]; 170 ppm foliar): 11 | No Flowers, Average (A to E) ([2]; 250 ppm foliar): 5.4 | No Flowers, A ([2]; 250 ppm foliar): 3 | No Flowers, B ([2]; 250 ppm foliar): 9 | No Flowers, C ([2]; 250 ppm foliar): 3 | No Flowers, D ([2]; 250 ppm foliar): 4 | No Flowers, E ([2]; 250 ppm foliar): 8 | No Flowers, Average (A to E) ([2]; 420 ppm foliar): 5 | No Flowers, A ([2]; 420 ppm foliar): 8 | No Flowers, B ([2]; 420 ppm foliar): 7 | No Flowers, C ([2]; 420 ppm foliar): 3 | No Flowers, D ([2]; 420 ppm foliar): 4 | No Flowers, E ([2]; 420 ppm foliar): 3 | No Flowers, Average (A to E) ([2]; 850 ppm foliar): 5.2 | No Flowers, A ([2]; 850 ppm foliar): 2 | No Flowers, B ([2]; 850 ppm foliar): 3 | No Flowers, C ([2]; 850 ppm foliar): 10 | No Flowers, D ([2]; 850 ppm foliar): 5 | No Flowers, E ([2]; 850 ppm foliar): 6 | quantity and fullness of flowers versus untreated controls ([2]; foliar application, up to a concentration of 80 ppm, FIGS. 2C-2H): more and fuller flowers than the untreated controls | Fresh weight plant [3, 5]: 2.62 g | Plant height [% of untreated control] [3, 5]: 111 % of untreated control | dry weight roots, % of untreated control [3, 5]: 105% | dry weight stem, % of untreated control [3, 5]: 114% | fresh weight roots, % of untreated control [3, 5]: 106% | fresh weight stem, % of untreated control [3, 5]: 103% | Fresh weight plant [3, 6]: 2.53 g | Plant height [% of untreated control] [3, 6]: 103 % of untreated control | dry weight roots, % of untreated control [3, 6]: 108% | dry weight stem, % of untreated control [3, 6]: 107% | fresh weight roots, % of untreated control [3, 6]: 107% | fresh weight stem, % of untreated control [3, 6]: 100% | Fresh weight plant [3, 7]: 2.24 g | Plant height [% of untreated control] [3, 7]: 87 % of untreated control | dry weight roots, % of untreated control [3, 7]: 68% | dry weight stem, % of untreated control [3, 7]: 77% | fresh weight roots, % of untreated control [3, 7]: 69% | fresh weight stem, % of untreated control [3, 7]: 88% | biomass of leaves in comparison to the untreated control [4, 8]: increased biomass of leaves | growth of the seedlings in comparison to the untreated control [4, 8]: higher growth of the seedlings | biomass of leaves in comparison to the untreated control [4, 9]: increased biomass of leaves | growth of the seedlings in comparison to the untreated control [4, 9]: higher growth of the seedlings
